Several values for one entry are separate records, joined by “and”; a condition that tells them apart may be missing. Equal entries are not always repeated.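 Growth conditions: 96-well plates. Treatment: test compound, 48 hours, 5 concentrations. Analysis: linear interpolation between bracketing concentrations; unreached endpoints set to highest concentration. The concentration for 50% growth inhibition is given as GI50. TGI: total growth inhibition.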
Experiments:
Test in all cases: NCI-60 cell line screen, 48 h
LOX IMVI melanoma = tested on: LOX IMVI melanoma
M14 melanoma = tested on: M14 melanoma
NCI-H522 lung = tested on: NCI-H522 lung
OVCAR-8 ovarian = tested on: OVCAR-8 ovarian
SK-MEL-2 melanoma = tested on: SK-MEL-2 melanoma
SK-MEL-28 melanoma = tested on: SK-MEL-28 melanoma
BT-549 breast = tested on: BT-549 breast
CAKI-1 renal = tested on: CAKI-1 renal
DU-145 prostate = tested on: DU-145 prostate
MDA-MB-231 breast = tested on: MDA-MB-231 breast

COc1nc(NC2OCC(OC(C)=O)C(OC(C)=O)C2OC(C)=O)c(N=CC=Nc2c(NC3OCC(OC(C)=O)C(OC(C)=O)C3OC(C)=O)nc(OC)n(C)c2=O)c(=O)n1C (configuration not stated)
TGI (LOX IMVI melanoma): > 100 µM
TGI (M14 melanoma): > 100 µM
TGI (NCI-H522 lung): > 100 µM
TGI (OVCAR-8 ovarian): > 100 µM
TGI (SK-MEL-2 melanoma): > 100 µM
TGI (SK-MEL-28 melanoma): > 100 µM

COC(=O)CCC(NC(=S)N/N=C(\C)c1nccs1)C(=O)OC (configuration not stated)
TGI (LOX IMVI melanoma): > 100 µM
TGI (M14 melanoma): > 100 µM
TGI (NCI-H522 lung): 78.4 µM
TGI (OVCAR-8 ovarian): > 100 µM
TGI (SK-MEL-2 melanoma): > 100 µM
TGI (SK-MEL-28 melanoma): > 100 µM

CN(CCCN)CCCNc1nc2ccccc2c2[nH]c3ccccc3c12
GI50 (BT-549 breast): 0.924 µM
TGI (BT-549 breast): 2.15 µM
GI50 (CAKI-1 renal): 0.259 µM
TGI (CAKI-1 renal): 0.754 µM
GI50 (DU-145 prostate): 0.3 µM
TGI (DU-145 prostate): 10.3 µM
GI50 (M14 melanoma): 0.696 µM
TGI (M14 melanoma): 1.93 µM
GI50 (MDA-MB-231 breast): 0.231 µM
TGI (MDA-MB-231 breast): 0.774 µM
GI50 (NCI-H522 lung): 0.0613 µM
TGI (NCI-H522 lung): 0.215 µM
GI50 (OVCAR-8 ovarian): 0.0825 µM
TGI (OVCAR-8 ovarian): 0.496 µM
GI50 (SK-MEL-2 melanoma): 0.306 µM
TGI (SK-MEL-2 melanoma): 0.835 µM
GI50 (SK-MEL-28 melanoma): 0.342 µM
TGI (SK-MEL-28 melanoma): 1.17 µM

Nc1cc2cccc[n+]2c2cc(Cl)ccc12
GI50 (BT-549 breast): 7.24 µM
TGI (BT-549 breast): 25.2 µM
GI50 (DU-145 prostate): 30.7 µM
GI50 (M14 melanoma): 19.3 µM
TGI (M14 melanoma): 47.4 µM
GI50 (MDA-MB-231 breast): 17.7 µM
TGI (MDA-MB-231 breast): 51 µM
GI50 (NCI-H522 lung): 11.8 µM
TGI (NCI-H522 lung): 33 µM
GI50 (OVCAR-8 ovarian): 16.8 µM
TGI (OVCAR-8 ovarian): 57.9 µM
GI50 (SK-MEL-2 melanoma): 0.0664 µM
TGI (SK-MEL-2 melanoma): 18.4 µM
GI50 (SK-MEL-28 melanoma): 14.9 µM
TGI (SK-MEL-28 melanoma): 37.3 µM

COc1cc(C2c3cc4c(cc3[C@@H](Nc3ccc(C#N)cc3)C3COC(=O)[C@H]23)OCO4)cc(OC)c1O (some centres not stated)
GI50 (BT-549 breast): 1.71 µM
TGI (BT-549 breast): 33.8 µM and 7.42 µM
GI50 (CAKI-1 renal): 0.228 µM
TGI (CAKI-1 renal): 4.37 µM and 2.52 µM
TGI (DU-145 prostate): 1.17 µM and 6.87 µM
TGI (LOX IMVI melanoma): 9.52 µM
GI50 (MDA-MB-231 breast): 3.34 µM
TGI (MDA-MB-231 breast): 25.6 µM and > 100 µM
GI50 (NCI-H522 lung): 1.44 µM and 1.55 µM
TGI (NCI-H522 lung): 7.51 µM and 4.48 µM and 7.4 µM
GI50 (OVCAR-8 ovarian): 1.51 µM
GI50 (SK-MEL-2 melanoma): 1.77 µM and 8.87 µM
GI50 (SK-MEL-28 melanoma): 2.89 µM
TGI (SK-MEL-28 melanoma): 28.2 µM and > 100 µM

COC(=O)/C=C/C=C(c1ccccc1)c1ccccc1
GI50 (BT-549 breast): 3.4 µM
TGI (BT-549 breast): 19.6 µM
GI50 (CAKI-1 renal): 3.05 µM
TGI (CAKI-1 renal): 10.4 µM
GI50 (DU-145 prostate): 5.48 µM
TGI (DU-145 prostate): 52.8 µM
GI50 (LOX IMVI melanoma): 5.87 µM
TGI (LOX IMVI melanoma): 21.7 µM
GI50 (M14 melanoma): 3.36 µM
TGI (M14 melanoma): 17.5 µM
GI50 (MDA-MB-231 breast): 11.1 µM
TGI (MDA-MB-231 breast): 36 µM
GI50 (NCI-H522 lung): 5.88 µM
TGI (NCI-H522 lung): 78.1 µM
GI50 (OVCAR-8 ovarian): 15 µM
TGI (OVCAR-8 ovarian): > 100 µM
GI50 (SK-MEL-28 melanoma): 7.84 µM
TGI (SK-MEL-28 melanoma): > 100 µM

CC1CCCCc2nc3c(c(=O)n21)CCCC3 (configuration not stated)
TGI (CAKI-1 renal): > 100 µM
TGI (LOX IMVI melanoma): > 100 µM
TGI (M14 melanoma): > 100 µM
TGI (NCI-H522 lung): > 100 µM
TGI (OVCAR-8 ovarian): > 100 µM
TGI (SK-MEL-2 melanoma): > 100 µM
TGI (SK-MEL-28 melanoma): > 100 µM

CCCC[C@H](NC(=O)[C@H]1CCCN1C)C(=O)N(C)[C@H](C[C@@H](OC(C)=O)c1nc(C(=O)N[C@@H](Cc2ccccc2)C[C@H](C)C(=O)OCC)cs1)C(C)C
GI50 (BT-549 breast): 0.0168 µM
TGI (BT-549 breast): 0.447 µM
GI50 (DU-145 prostate): 0.0137 µM
TGI (DU-145 prostate): > 33.3 µM
GI50 (LOX IMVI melanoma): 0.0173 µM
TGI (LOX IMVI melanoma): 9.99 µM
GI50 (M14 melanoma): 0.0163 µM
TGI (M14 melanoma): 3.77 µM
GI50 (MDA-MB-231 breast): 0.018 µM
TGI (MDA-MB-231 breast): 0.844 µM
GI50 (NCI-H522 lung): 0.00341 µM
TGI (NCI-H522 lung): 0.0143 µM
GI50 (OVCAR-8 ovarian): 0.036 µM
TGI (OVCAR-8 ovarian): > 33.3 µM
GI50 (SK-MEL-2 melanoma): 0.00613 µM
TGI (SK-MEL-2 melanoma): 8.71 µM
GI50 (SK-MEL-28 melanoma): 0.029 µM
TGI (SK-MEL-28 melanoma): 17.4 µM

CC(C)C(=O)Nc1nc2nc[nH]c2c(=O)[nH]1
TGI (CAKI-1 renal): > 100 µM
TGI (LOX IMVI melanoma): > 100 µM
TGI (M14 melanoma): > 100 µM
TGI (NCI-H522 lung): > 100 µM
TGI (OVCAR-8 ovarian): > 100 µM
TGI (SK-MEL-2 melanoma): > 100 µM
TGI (SK-MEL-28 melanoma): > 100 µM

NC(=S)N/N=C(/CC(=O)c1ccccc1)C(=O)Nc1ccc(Cl)c(Cl)c1
TGI (CAKI-1 renal): > 100 µM
TGI (LOX IMVI melanoma): > 100 µM
TGI (M14 melanoma): > 100 µM
TGI (NCI-H522 lung): 59.4 µM
TGI (OVCAR-8 ovarian): > 100 µM
TGI (SK-MEL-2 melanoma): > 100 µM
TGI (SK-MEL-28 melanoma): > 100 µM

CCCCCCCCCCCCOC(=S)NCCCC
TGI (LOX IMVI melanoma): 32 µM
TGI (M14 melanoma): 79 µM
TGI (NCI-H522 lung): 36.5 µM
TGI (OVCAR-8 ovarian): 40.2 µM
TGI (SK-MEL-2 melanoma): 44.2 µM
TGI (SK-MEL-28 melanoma): 90.9 µM

COCCN1C2=CCCCC2=Nc2c1nc(N)[nH]c2=O
TGI (CAKI-1 renal): > 100 µM
TGI (LOX IMVI melanoma): > 100 µM
TGI (M14 melanoma): > 100 µM
TGI (NCI-H522 lung): > 100 µM
TGI (OVCAR-8 ovarian): > 100 µM
TGI (SK-MEL-28 melanoma): > 100 µM

CC(C)(C)OC(=O)C#CC[C@H]1CCCC1/C=C/C(O)=C1/C(=O)NC(CCCNC(=O)OC(C)(C)C)C1=O (some centres not stated)
TGI (CAKI-1 renal): > 100 µM
TGI (LOX IMVI melanoma): 40.2 µM
TGI (M14 melanoma): > 100 µM
TGI (NCI-H522 lung): 40.7 µM
TGI (OVCAR-8 ovarian): 31.6 µM
TGI (SK-MEL-2 melanoma): 34.4 µM
TGI (SK-MEL-28 melanoma): 36.1 µM

C=C1C(=O)O[C@H]2[C@H]1[C@H](OC(=O)/C(C)=C\C)CC(=C)[C@@H]1[C@H](O)[C@H]3O[C@@]3(C)[C@@]12O
TGI (CAKI-1 renal): > 100 µM
TGI (LOX IMVI melanoma): > 100 µM
TGI (M14 melanoma): > 100 µM
TGI (NCI-H522 lung): > 100 µM
TGI (OVCAR-8 ovarian): > 100 µM
TGI (SK-MEL-2 melanoma): > 100 µM
TGI (SK-MEL-28 melanoma): > 100 µM

COC(=O)CCC1CCc2c(OC)ccc(O)c2C1=O (configuration not stated)
TGI (LOX IMVI melanoma): > 100 µM
TGI (M14 melanoma): > 100 µM
TGI (NCI-H522 lung): > 100 µM
TGI (OVCAR-8 ovarian): > 100 µM
TGI (SK-MEL-2 melanoma): > 100 µM
TGI (SK-MEL-28 melanoma): > 100 µM

CCCc1[nH]nc(CCC(=O)N(Cc2ccccc2)Cc2ccccc2)c1CC
TGI (CAKI-1 renal): > 100 µM
TGI (LOX IMVI melanoma): > 100 µM
TGI (M14 melanoma): > 100 µM
TGI (NCI-H522 lung): > 100 µM
TGI (OVCAR-8 ovarian): > 100 µM
TGI (SK-MEL-2 melanoma): > 100 µM
TGI (SK-MEL-28 melanoma): > 100 µM

c1cc(-c2cn3ccsc3n2)ccn1
TGI (CAKI-1 renal): > 100 µM
TGI (LOX IMVI melanoma): > 100 µM
TGI (M14 melanoma): > 100 µM
TGI (NCI-H522 lung): > 100 µM
TGI (OVCAR-8 ovarian): > 63.8 µM
TGI (SK-MEL-2 melanoma): > 100 µM
TGI (SK-MEL-28 melanoma): > 100 µM

O=C(c1ccccc1)C1N=NCC1c1ccc([N+](=O)[O-])cc1 (configuration not stated)
TGI (BT-549 breast): 65.8 µM
TGI (CAKI-1 renal): 44.5 µM
TGI (DU-145 prostate): > 100 µM
TGI (LOX IMVI melanoma): > 100 µM
TGI (M14 melanoma): > 100 µM
TGI (MDA-MB-231 breast): > 100 µM
TGI (OVCAR-8 ovarian): > 100 µM
TGI (SK-MEL-2 melanoma): > 100 µM
TGI (SK-MEL-28 melanoma): > 100 µM

Cc1ccc(C(=O)O/N=C2/CCC/C2=C\c2ccccc2)cc1
TGI (CAKI-1 renal): > 100 µM
TGI (LOX IMVI melanoma): > 100 µM
TGI (M14 melanoma): > 100 µM
TGI (NCI-H522 lung): > 100 µM
TGI (OVCAR-8 ovarian): > 100 µM
TGI (SK-MEL-2 melanoma): > 100 µM
TGI (SK-MEL-28 melanoma): > 100 µM

COc1ccc(-c2ccc(/C=N/n3c(COc4ccc(Cl)cc4Cl)n[nH]c3=S)o2)c([N+](=O)[O-])c1
GI50 (BT-549 breast): 21.9 µM
TGI (BT-549 breast): 50.2 µM
GI50 (CAKI-1 renal): 17.3 µM
TGI (CAKI-1 renal): 36.9 µM
GI50 (DU-145 prostate): 38.3 µM
TGI (DU-145 prostate): > 100 µM
GI50 (M14 melanoma): 16 µM
TGI (M14 melanoma): 31.6 µM
GI50 (NCI-H522 lung): 29.7 µM
TGI (NCI-H522 lung): > 100 µM
GI50 (OVCAR-8 ovarian): 29.7 µM
TGI (OVCAR-8 ovarian): > 100 µM
GI50 (SK-MEL-28 melanoma): 30.3 µM
TGI (SK-MEL-28 melanoma): 62.5 µM

— PubChem BioAssay (NCI)
